Results on 82 compounds are retold here after PubChem BioAssay AID651684 (Sanford-Burnham Center for Chemical Genomics, 2012).

SMILES strings stand for the structures. Active and inactive are the calls of the source.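 How the source made its calls: active means any single replicate giving an EC50 below 30 µM; inactive means the rest.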

This assay deals with Pro5-aDG cells, alpha-DG glycosylation, IIH6 AlphaLISA. Briefly: potency of alpha-dystroglycan glycosylation enhancers – Pro5-aDG cells, AlphaLISA, dose response (AID 651684). Background: In Alpha technology, singlet oxygen from a donor bead excites a nearby acceptor bead.
What is called EC50 is the concentration that produces a half-maximal response. With `CCC(C)Nc1nc(-c2c[nH]c3ccccc23)cs1` (configuration not stated), the EC50 was 4.36 µM.
As to `CCCn1c(=N)n(CC(=O)c2ccc(Cl)cc2)c2ccccc21`, the EC50 was 33.6 µM.
In the case of `O=C1C(=O)N(CCS(=O)(=O)c2ccccc2)c2ccc(F)cc21` it was 9.36 µM.
The result for `CCOc1ccc(NC(=O)c2ccc(F)c(S(=O)(=O)N3CCN(c4ccccn4)CC3)c2)cc1` reads > 80 µM (inactive).
The result for `COc1ccc(Cc2nc(-c3ccc(NC(=O)c4cccnc4)cc3)no2)cc1` reads 1.52 µM; that for `COc1cc(CNCCN(C)C)ccc1OCc1c(F)cccc1Cl`, 18 µM.
For the compound `COc1cc(/C=C/C(=O)Nc2nc3ccc(S(=O)(=O)NC(C)C)cc3s2)cc(OC)c1OC`, the EC50 is 9.21 µM.
In the case of `N#Cc1ccc(-c2nc3c4ccccc4ccn3c2CC2CCCCC2)cc1` it was 7.97 µM; in that of `CC1CCCN(S(=O)(=O)c2ccc(C(=O)Nc3sc4c(c3C(N)=O)CCN(C)C4)cc2)C1` (configuration not stated), 12.3 µM; in that of `c1cncc(-c2nnc(-c3cccnc3)nn2)c1`, 8.73 µM.
Regarding `C/C(=N/NC(=O)C(O)(c1ccccc1)c1ccccc1)c1ccc([N+](=O)[O-])o1`, the EC50 was 12.7 µM.
In the case of `CCC(c1nnnn1Cc1cccs1)N1CCN(c2nc3ccccc3s2)CC1` (configuration not stated) it was 22.6 µM.
In the case of `CCN(CC)CCn1c(=N)n(CC(=O)c2ccc(C)cc2)c2ccccc21` it was 24.5 µM.
The result for `Cc1cccc(CN2CCC(CNC(=O)Nc3ccc(F)c(Cl)c3)CC2)c1` reads 8.57 µM.
Consider `CCCCCNCC(=O)Nc1cccc(C(=O)Nc2cccc(C(F)(F)F)c2)c1`, for which the EC50 is 11.6 µM.
The result for `CN1N=C(N)c2cn(C3OC(COP(=O)(O)O)C(O)C3O)c3ncnc1c23` (configuration not stated) reads 35.1 µM (inactive); that for `CCCCCOc1ccc(NC(=O)C(=O)NCC2CCCN2CC)cc1` (configuration not stated), 8.54 µM; that for `Cc1ccnc(-n2c(C)nc3ccccc3c2=O)c1`, > 80 µM (inactive).
With `COc1cccc(C(=O)Cn2c(=N)n(C)c3ccccc32)c1`, the EC50 was 58.4 µM (inactive).
In the case of `CCOC(=O)N/N=C\c1ccc([N+](=O)[O-])s1` it was 12.3 µM; in that of `CCOc1ccc(N2CC(C(=O)N3CCN(c4ccccn4)CC3)CC2=O)cc1` (configuration not stated), 11.8 µM; in that of `N#Cc1ccsc1NC(=O)c1cccc(-n2cnnn2)c1`, 20.7 µM.
The result for `CS(=O)(=O)c1ccc(Nc2nc(C(N)Cc3ccc(Cl)cc3)cs2)cc1` (configuration not stated) reads 8.93 µM; that for `c1ccc2c(-c3cc(C4CCNCC4)[nH]n3)cccc2c1`, > 80 µM (inactive); that for `Cc1cc(C)n(-c2nc(NCCCN(C)C)c3c4c(sc3n2)CCCC4)n1`, 16.1 µM.
In the case of `Cc1cc(NC2=CC(=O)C(=O)c3ccccc32)no1`, the EC50 is 6.66 µM.
In the case of `CC(C)c1ccc(NC(=O)C2Cc3c(-c4ccc(Cl)cc4)ccnc3O2)cc1` (configuration not stated) it was 3.98 µM.
In the case of `CCc1nc2ccc(C(=O)NC3CCN(Cc4ccccc4)CC3)cn2c1N(C)Cc1cc2ccccc2s1` it was 6.07 µM; in that of `CC(C)c1ccc(-c2cc(C(=O)N3CCOCC3)c3cc(Br)ccc3n2)cc1`, 6.31 µM; in that of `O=C1C(Cl)=C(NCc2ccco2)C(=O)c2ccccc21`, 4.97 µM.
In the case of `CN1CCN(S(=O)(=O)c2cccc(C(=O)Nc3sccc3C#N)c2)CC1` it was 37.6 µM; in that of `CN1CCN(c2ncnc3c2ncn3[C@H]2CN(Cc3ccc(-c4ccccc4)cc3)C[C@@H](CO)O2)CC1`, 16.1 µM.
With `CC(C)OC(=O)CN1C(=O)C(=O)c2ccccc21`, the EC50 was 6.56 µM.
The result for `C=CCn1c(=N)n(CC(=O)c2ccc(Cl)cc2)c2ccccc21` reads 41.6 µM (inactive); that for `COc1cc(CNC(=O)Nc2nc(C(N)Cc3ccc(Cl)cc3)cs2)cc(OC)c1OC` (configuration not stated), > 80 µM (inactive).
The result for `CC(C)N1CCN(c2ccc(OCC3COC(Cn4cncn4)(c4ccc(Cl)cc4Cl)O3)cc2)CC1` (configuration not stated) reads 9.77 µM; that for `C/C=C/c1ccc(OCCCNC2CCCC2)c(OC)c1`, 11.7 µM; that for `COc1cc2[nH]c3c(=O)n4c(nc3c2cc1OC)SCCC4`, 6.47 µM.
The result for `CC(=O)Oc1c(Cl)cc(N(C(C)=O)S(=O)(=O)c2ccccc2)c2ccccc12` reads 3.17 µM.
With `O=C(CNC(=O)c1ccccc1)N/N=C/c1ccc([N+](=O)[O-])s1`, the EC50 was 6.46 µM.
As to `Brc1ccc2ncnc(NCc3ccccc3)c2c1`, the EC50 was 3.34 µM.
The result for `Cc1cncn1CCc1nc2c3ccccc3nc(SCC(=O)Nc3cccc(Cl)c3)n2n1` reads > 80 µM (inactive); that for `CN(C)CCCNC(=O)/C=C/c1ccc(OCc2c(F)cccc2Cl)cc1`, 9.37 µM; that for `Cc1nc(SCC(=O)Nc2cc(C(N)=O)cc(C(N)=O)c2)c2c(C)c(C)sc2n1`, 28.5 µM.
The result for `CCCC[n+]1ccn(C2=C([O-])c3ccccc3C(=O)/C2=N\S(=O)(=O)c2ccc(Br)cc2)c1` reads 6.95 µM.
As to `CCc1ccc(C(CNC(=O)c2ccc3c(=O)n(-c4ccccc4F)c(=S)[nH]c3c2)N(C)C)cc1` (configuration not stated), the EC50 is 1.9 µM.
In the case of `O=C(Nc1cccc2ccccc12)c1ccc([N+](=O)[O-])s1` it was 6.88 µM.
With `COc1ccc(CN2CCC(C(=O)Nc3ccc(Oc4cccnc4)cc3)CC2)c(C)c1C`, the EC50 was 8.89 µM.
In the case of `Brc1cccc(-c2nc3c4ccccc4ccn3c2CC2CCCCC2)c1`, the EC50 is 23.7 µM.
The result for `CC(=O)c1ccc(N2CCN(C(=O)Nc3ccc(C(C)C)cc3)CC2)cc1` reads 12.8 µM; that for `COc1ccccc1NC(=O)Nc1nc(C(N)Cc2ccccc2)cs1` (configuration not stated), > 80 µM (inactive).
Take `N=c1n(CCN2CCOCC2)c2ccccc2n1CC(=O)c1ccc(Cl)c(Cl)c1`: the EC50 is 47.1 µM (inactive).
As for `CCn1c(=N)n(CC(=O)c2ccc(Cl)c(Cl)c2)c2ccccc21`, the EC50 is 32 µM (inactive).
`CCc1ccc(C2c3[nH]c4ccccc4c3CCN2C(=O)CN2CCN(CC)CC2)cc1` (configuration not stated): the EC50 is > 80 µM (inactive).
The result for `N#Cc1ccsc1NC(=O)c1ccc2ncsc2c1` reads 42.7 µM.
The result for `CCCCN(C)CCNC(=O)c1cc(-c2cccnc2)nc2ccc(S(=O)(=O)N3CCC(C)CC3)cc12` reads > 80 µM (inactive).
For `Cc1cc(NCc2ccccn2)n2ncc(-c3ccc(Cl)cc3)c2n1`, the EC50 was 3.48 µM.
With `Cn1c(=N)n(CC(=O)c2ccc(Br)cc2)c2ccccc21`, the EC50 was 42.7 µM (inactive).
In the case of `N=c1c2c(ncn1CCCO)Oc1c(ccc3ccccc13)C2c1ccccc1` (configuration not stated) it was > 80 µM (inactive); in that of `CN1CCN(c2ccc(S(=O)(=O)N3CCCCC3)cc2NC(=O)/C=C/c2ccc(OC(F)F)cc2)CC1`, > 80 µM (inactive); in that of `Cc1cccc(NC(=S)N(CCCN2CCCC2)Cc2cccn2Cc2ccc(Cl)cc2)c1`, > 80 µM (inactive).
In the case of `O=C(Nc1ccccc1F)c1ccc([N+](=O)[O-])s1` it was 8.89 µM; in that of `CCCCN1CCc2c1nc1ccc(Br)cc1c2N`, > 80 µM (inactive); in that of `CC(C)n1cc(CN2CCCC(C(=O)Nc3cccc(-c4cc5ccccc5[nH]4)c3)C2)cn1` (configuration not stated), > 80 µM (inactive).
The result for `CCCn1c(=N)n(CC(=O)c2ccc(Cl)c(Cl)c2)c2ccccc21` reads 31.2 µM (inactive); that for `CC(C)(C)c1ccc(C(=O)Nc2ccc(C(=O)NCc3cccnc3)cc2)cc1`, 2.48 µM; that for `Cc1cc(Br)ccc1OCCCCNC(C)(C)C`, 12.2 µM.
On to `COCCN1CCC(CNCc2cn(-c3cc(C)ccc3C)nc2-c2ccccc2)C1` (configuration not stated), for which the EC50 was > 80 µM (inactive).
The result for `CCn1cc(CN2CCC(C(=O)Nc3cccc(-c4cccc(Cl)c4)c3)CC2)c(C)n1` reads 6.99 µM.
The result for `CNc1nc(-c2c[nH]c3ccccc23)cs1` reads 4.99 µM; that for `O=C(CNC(=O)c1ccccc1Cl)N/N=C/c1ccc([N+](=O)[O-])s1`, 7.48 µM.
In the case of `CC(C)COc1ccc(CSCCNC(=S)Nc2ccccc2)cc1` it was 6.37 µM; in that of `CCOC(=O)c1cc(-c2ccc(F)cc2)n(CCC(=O)NC2CCN(Cc3ccccc3)CC2)c1C`, > 80 µM (inactive); in that of `CCOc1ccc(-n2cc(C(=O)N3CCCCCC3)c3cc(OC)c(OC)cc3c2=O)cc1`, 5.6 µM.
Turning to `COCCNc1nc(NCCOc2ccccc2)c2sc(-c3ccccc3)cc2n1`, the EC50 was 7.86 µM.
The result for `NC(c1csc(Nc2cc(Oc3ccccc3)ncn2)n1)C1CCCCC1` (configuration not stated) reads 7.32 µM; that for `CN(C)CCCNS(=O)(=O)c1ccc(NC2CCCCCC2)c([N+](=O)[O-])c1`, 6.11 µM; that for `Cc1cccc(/C=C2/Sc3ccc(C(=O)NCCN4CCCC4)cc3NC2=O)c1`, > 80 µM (inactive).
In the case of `CC(C)Oc1ccc(OCCCN2CCCCCC2)cc1`, the EC50 is 12.4 µM.
The result for `CCCCCOc1ccc(/C(C)=N/NC2=NCCN2)cc1` reads 5.81 µM.
The result for `CC1CCCN(CCCNC(=O)c2nn(C)c3c2CSc2ccccc2-3)C1` (configuration not stated) reads 8.18 µM; that for `Cc1ccc(NC(=O)c2ccc([N+](=O)[O-])s2)cc1S(=O)(=O)N1CCOCC1`, 5.92 µM.
